# Test results reported in patent US11130741B2 (Bioimics AB, priority 2016, dated 2021).
# Where two headings read alike, the source gives them in different places.
# Legend:
# [1] = test system: E. coli RNase P RNA, M1 RNA; assay: Inhibition of bacterial RNase P activity, IC50 determination (cleavage of pATSerUG by M1 RNA); format: biochemical; conditions: NI = No inhibition
# [2] = test system: Staphylococcus aureus subsp. aureus (ATCC29213); assay: MIC, broth microdilution (CLSI), Staphylococcus aureus subsp. aureus ATCC29213; format: cell-based; conditions: ATCC29213, Table 15, read-out: S. aureus ("wound") (MIC)
# [3] = test system: Escherichia coli (ATCC25922); assay: MIC, broth microdilution (CLSI), Escherichia coli ATCC25922
# [4] = ATCC25922, read-out: E. coli MIC, Table 15, NI = No inhibition
# [5] = ATCC25922, read-out: E. coli MIC
Compound,IC50 [1],MIC [2],"MIC [3, 4]","MIC [3, 5]"
"CC1CCN(c2ccc3c(c2)Sc2cc(C(F)(F)F)cc(NC4CCN(CCN)CC4)c2N3)C1.Cl.Cl (stereo not shown) [compound 311, N-(1-(2-aminoethyl)piperidin-4-yl)-7-(3-methyl-pyrrolidin-1-yl)-3-(trifluoromethyl)-10H-phenothiazin-1-amine hydrochloride]",2.5 µM,2 mg/L,8 mg/L,
"CC1CCN(c2ccc3c(c2)Sc2cc(C(F)(F)F)cc(NC4CCN(CCN)CC4)c2N3)C1C.Cl (stereo not shown) [compound 336, N-(1-(2-aminoethyl)piperidin-4-yl)-7-(2,3-dimethyl-pyrrolidin-1-yl)-3-(trifluoromethyl)-10H-phenothiazin-1-amine hydrochloride]",19 µM,1 mg/L,4 mg/L,
"Cl.NC1CCCC(C(=O)Nc2cc(C(F)(F)F)cc3c2Nc2ccc(N4CCCC4)cc2S3)C1 (stereo not shown) [compound 294, 3-amino-N-(7-(pyrrolidin-1-yl)-3-(trifluoromethyl)-10H-phenothiazin-1-yl)cyclohexane-1-carboxamide hydrochloride]",2.4 µM,8 mg/L,64 mg/L,
"N#Cc1ccc2c(c1)Sc1cc(N3CCN(CCN)CC3)ccc1N2CCCN [compound 292, 7-(4-(2-aminoethyl)piperazin-1-yl)-10-(3-aminopropyl)-10H-phenothiazine-3-carbonitrile trifluoro acetic acid]",140 µM,128 mg/L,,> 128 mg/L
"Cl.Cl.NCCN1CCC(Nc2cc(C(F)(F)F)cc3c2Nc2ccc(N4CCC(F)(F)C4)cc2S3)CC1 [compound 303, N-(1-(2-aminoethyl)piperidin-4-yl)-7-(3,3-difluoro-pyrrolidin-1-yl)-3-(trifluoromethyl)-10H-phenothiazin-1-amine hydrochloride]",9.7 µM,8 mg/L,32 mg/L,
"Cl.Cl.NCCCN1c2ccc(C(=O)O)cc2Sc2cc(N3CCN(CCN)CC3)ccc21 [compound 277, 7-(4-(2-aminoethyl)piperazin-1-yl)-10-(3-aminopropyl)-10H-phenothiazine-3-carboxylic acid hydrochloride]",,> 128 mg/L,,> 128 mg/L
"CC1CC(C)N(c2ccc3c(c2)Sc2cc(C(F)(F)F)cc(NCCCNCCN)c2N3)C1.Cl (stereo not shown) [compound 349, N1-(2-aminoethyl)-N3-(7-(2,4-dimethyl-pyrrolidin-1-yl)-3-(trifluoromethyl)-10H-phenothiazin-1-yl)propane-1,3-diamine hydrochloride]",,4 mg/L,16 mg/L,
"Cl.Cl.Cl.NCCCN1c2ccc(Br)cc2Sc2cc(N3CCN(CCN)CC3)ccc21 [compound 278, 3-(3-(4-(2-aminoethyl)piperazin-1-yl)-7-bromo-10H-phenothiazin-10-yl)propan-1-amine hydrochloride]",,32 mg/L,128 mg/L,
"Cl.Cl.NCCN1CCC(Nc2cc(C(=O)N3CCCC3)cc3c2Nc2ccccc2S3)CC1 [compound 288, (1-(1-(2-aminoethyl)piperidin-4-ylamino)-10H-phenothiazin-3-yl)(pyrrolidin-1-yl)methanone]",,128 mg/L,,128 mg/L
"COC1CCCN(c2ccc3c(c2)Sc2cc(C(F)(F)F)cc(NC4CCN(CCN)CC4)c2N3)C1.Cl (stereo not shown) [compound 326, N-(1-(2-aminoethyl)piperidin-4-yl)-7-(3-methoxy-piperidin-1-yl)-3-(trifluoromethyl)-10H-phenothiazin-1-amine hydrochloride]",,8 mg/L,16 mg/L,
"Cl.NCCN1CCC(Nc2cc(C(F)(F)F)cc3c2Nc2cc(N4CCCC4)ccc2S3)CC1 [compound 356, N-(1-(2-aminoethyl)piperidin-4-yl)-8-(pyrrolidin-1-yl)-3-(trifluoromethyl)-10H-phenothiazin-1-amine hydrochloride]",,16 mg/L,32 mg/L,
"Cl.NCCN1CCC(Nc2cc(C(F)(F)F)cc3c2Nc2ccc(N4CCCC(F)C4)cc2S3)CC1 (stereo not shown) [compound 318, N-(1-(2-aminoethyl)piperidin-4-yl)-7-(3-fluoro-piperidin-1-yl)-3-(trifluoromethyl)-10H-phenothiazin-1-amine hydrochloride]",,8 mg/L,16 mg/L,
"Cl.Cl.Cl.NCCC1CCN(c2ccc3c(c2)Sc2cc(C(F)(F)F)cc(NC4CCN(CCN)CC4)c2N3)CC1 [compound 273, 7-(4-(2-aminoethyl)piperidin-1-yl)-N-(1-(2-aminoethyl)piperidin-4-yl)-3-(trifluoromethyl)-10H-phenothiazin-1-amine hydrochloride]",,8 mg/L,32 mg/L,
"Cl.NCCCNc1cc(C(F)(F)F)cc2c1Nc1ccc(N3CCCC3)cc1S2 [compound 324, N1-(7-(pyrrolidin-1-yl)-3-(trifluoromethyl)-10H-phenothiazin-1-yl)propane-1,3-diamine hydrochloride]",,4 mg/L,32 mg/L,
CN(C)c1ccc2c(c1)Sc1cc(C(F)(F)F)cc(NC3CCN(CCN)CC3)c1N2.Cl [compound 334],,4 mg/L,16 mg/L,
"CCOC(=O)c1ccc2c(c1)Sc1cc(N3CCN(CCN)CC3)ccc1N2CCCN [compound 271, ethyl 7-(4-(2-aminoethyl)piperazin-1-yl)-10-(3-aminopropyl)-10H-phenothiazine-3-carboxylate trifluoro acetic acid]",,128 mg/L,,> 128 mg/L

Compound,IC50 [1],MIC [2],"MIC [3, 4]","MIC [3, 5]"
"FC(F)(F)c1cc(NC2CC3CCC(C2)N3)c2c(c1)Sc1ccccc1N2 (stereo not shown) [compound 290, N-(8-azabicyclo[3.2.1]octan-3-yl)-3-(trifluoromethyl)-10H-phenothiazin-1-amine]",,8 mg/L,32 mg/L,
"CC1CCCN1c1ccc2c(c1)Sc1cc(C(F)(F)F)cc(NC3CCN(CCN)CC3)c1N2.Cl.Cl (stereo not shown) [compound 316, N-(1-(2-aminoethyl)piperidin-4-yl)-7-(2-methyl-pyrrolidin-1-yl)-3-(trifluoromethyl)-10H-phenothiazin-1-amine hydrochloride]",,2 mg/L,8 mg/L,
"Cl.Cl.NCCN1CCC(Nc2cc(C(=O)NNc3ccccc3)cc3c2Nc2ccccc2S3)CC1 [compound 281, 1-((1-(2-aminoethyl)piperidin-4-yl)amino)-N′-phenyl-10H-phenothiazine-3-carbohydrazide hydrochloride]",,32 mg/L,64 mg/L,
"FC(F)(F)c1cc(NC2CCNCC2)c2c(c1)SC1CCCCC1N2 (stereo not shown) [compound 259, N-(piperidin-4-yl)-7-(trifluoromethyl)-2,3,4,4a,10,10a-hexahydro-1H-phenothiazin-9-amine]",,16 mg/L,64 mg/L,
"Cl.NCCOCCCNc1cc(C(F)(F)F)cc2c1Nc1ccc(Br)cc1S2 [compound 344, N-(3-(2-aminoethoxy)propyl)-7-bromo-3-(trifluoromethyl)-10H-phenothiazin-1-amine hydrochloride]",,8 mg/L,16 mg/L,
"Cl.NCCN1CCC(Nc2cc(C(F)(F)F)cc3c2Nc2cc(Br)ccc2S3)CC1 [compound 352, N-(1-(2-aminoethyl)piperidin-4-yl)-8-bromo-3-(trifluoromethyl)-10H-phenothiazin-1-amine hydrochloride]",,4 mg/L,8 mg/L,
"NC1CCCC(C(=O)Nc2cc(C(F)(F)F)cc3c2Nc2ccc(N4CCNCC4)cc2S3)C1 (stereo not shown) [compound 256, 3-amino-N-(7-(piperazin-1-yl)-3-(trifluoromethyl)-10H-phenothiazin-1-yl)cyclohexane-1-carboxamide]",,16 mg/L,32 mg/L,
"CCN(C)c1ccc2c(c1)Sc1cc(C(F)(F)F)cc(NC3CCN(CCN)CC3)c1N2.Cl.Cl [compound 339, N1-(1-(2-aminoethyl)piperidin-4-yl)-N7-ethyl-N7-methyl-3-(trifluoromethyl)-10H-phenothiazine-1,7-diamine hydrochloride]",,4 mg/L,8 mg/L,
"CCOC(=O)c1ccc2c(c1)Sc1cc(Br)ccc1N2CCCN [compound 276, ethyl 10-(3-aminopropyl)-7-bromo-10H-phenothiazine-3-carboxylate]",,4 mg/L,32 mg/L,
"CC1CN(c2ccc3c(c2)Sc2cc(Br)ccc2N3CCCN)CC(C)O1.Cl (stereo not shown) [compound 279, 3-(3-bromo-7-(2,6-dimethyl-morpholino)-10H-phenothiazin-10-yl)propan-1-amine hydrochloride]",,16 mg/L,128 mg/L,
"Cl.NCCNCCCNc1cc(C(F)(F)F)cc2c1Nc1ccc(N3CCC4CCCC43)cc1S2 (stereo not shown) [compound 351, N1-(2-aminoethyl)-N3-(7-(hexahydro-cyclopenta[b]pyrrol-1(2H)-yl)-3-(trifluoromethyl)-10H-phenothiazin-1-yl)propane-1,3-diamine hydrochloride]",,4 mg/L,16 mg/L,
"Cl.NCCN1CCC(Nc2cc(C(F)(F)F)cc3c2Nc2ccc(C4=CCCC4)cc2S3)CC1 [compound 359, N-(1-(2-aminoethyl)piperidin-4-yl)-7-(cyclopent-1-en-1-yl)-3-(trifluoromethyl)-10H-phenothiazin-1-amine hydrochloride]",,16 mg/L,64 mg/L,
"CC(=O)Nc1cc(C(F)(F)F)cc2c1Nc1ccc(N3CCCC3)cc1S2.Cl [compound 328, N-(7-(pyrrolidin-1-yl)-3-(trifluoromethyl)-10H-phenothiazin-1-yl)acetamide hydrochloride]",,16 mg/L,> 128 mg/L,
"Cl.NCCN1CCC(Nc2cc(C(F)(F)F)cc3c2Nc2ccc(N4CCC(C(N)=O)C4)cc2S3)CC1 (stereo not shown) [compound 338, 1-(9-((1-(2-aminoethyl)piperidin-4-yl)amino)-7-(trifluoromethyl)-10H-phenothiazin-3-yl)pyrrolidine-3-carboxamide hydrochloride]",,4 mg/L,64 mg/L,
"CC1CC(C)CN(c2ccc3c(c2)Sc2cc(N4CCN(CCN)CC4)ccc2N3CCCN)C1.Cl.Cl.Cl.Cl (stereo not shown) [compound 286, 3-(3-(4-(2-aminoethyl)piperazin-1-yl)-7-(3,5-dimethyl-piperidin-1-yl)-10H-phenothiazin-10-yl)propan-1-amine hydrochloride]",,32 mg/L,128 mg/L,
